27 compounds from patent US11981677B2, “Further substituted triazolo quinoxaline derivatives” (Grünenthal GmbH, priority 2018, dated 2024) can be followed below.

This test concerns the target T1, Glucocorticoid Receptor (Homo sapiens, UniProt P04150).
T1 construct: expressed in transfected cells
T1 sequence (P04150 524-758 limits assumed): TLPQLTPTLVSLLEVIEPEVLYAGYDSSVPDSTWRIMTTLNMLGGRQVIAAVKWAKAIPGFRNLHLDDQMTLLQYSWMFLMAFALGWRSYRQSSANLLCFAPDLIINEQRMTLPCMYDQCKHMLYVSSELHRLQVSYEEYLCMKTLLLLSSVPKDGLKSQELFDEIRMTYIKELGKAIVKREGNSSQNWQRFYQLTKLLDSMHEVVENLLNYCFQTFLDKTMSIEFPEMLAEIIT
The experiment in a line: Agonistic mode of action on the glucocorticoid receptor (CHO-Gal4/GR luciferase reporter cell line). The test is classed as cell-based. The note with it: CHO-Gal4/GR luciferase reporter cells; observed in the agonistic assay or the antagonistic assay (mode not given); read-out: IC50 or EC50 range. The method, boiled down:
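CHO cells stably expressing GAL4 DBD–GR ligand-binding domain fusion with GAL4-UAS firefly luciferase reporter, seeded 24 h, then treated in Opti-MEM with 8 half-log concentrations from 10 μM to 0.003 μM (0.5% DMSO), quadruplicate. Luminescence read on FLIPR after lysis with Triton/luciferin; EC50 calculated.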
On to `Cc1nnc2n1-c1c(c(F)c(F)c(-c3cccc4c3ccn4S(C)(=O)=O)c1C(F)(F)F)NC2(C)C` [Example 500, 6,7-difluoro-1,4,4-trimethyl-8-(1-(methylsulfonyl)-1H-indol-4-yl)-9-(trifluoromethyl)-4,5-dihydro-[1,2,4]triazolo[4,3-a]quinoxaline], for which the IC50 or EC50 (antagonist or agonist mode, not stated per compound) lay within 100 to 1000 nM.

As to `COc1c(-c2cc(F)cc3c2cnn3S(C)(=O)=O)c(F)c(F)c2c1-n1c(C)nnc1C(C)(C)N2` [Example 501, 6,7-Difluoro-8-(6-fluoro-1-methylsulfonyl-1H-indazol-4-yl)-9-methoxy-1,4,4-trimethyl-5H-[1,2,4]triazolo[4,3-a]quinoxaline], the IC50 or EC50 (antagonist or agonist mode, not stated per compound) was in the range of 100 to 1000 nM.

In the case of `Cc1c(-c2cccc3c2ccn3S(C)(=O)=O)c(F)c(Cl)c2c1-n1c(C)nnc1C(C)(C)N2` [Example 502, 6-Chloro-7-fluoro-1,4,4,9-tetramethyl-8-(1-methylsulfonyl-1H-indol-4-yl)-5H-[1,2,4]triazolo[4,3-a]quinoxaline], the IC50 or EC50 (antagonist or agonist mode, not stated per compound) is under 100 nM.

`Cc1c(-c2cc(F)cc3c2ccn3S(C)(=O)=O)c(F)c(Cl)c2c1-n1c(C)nnc1C(C)(C)N2` [Example 503, 6-Chloro-7-fluoro-8-(6-fluoro-1-methylsulfonyl-1H-indol-4-yl)-1,4,4,9-tetramethyl-5H-[1,2,4]triazolo[4,3-a]quinoxaline]: the IC50 or EC50 (antagonist or agonist mode, not stated per compound) was in the range of 1000 to 15000 nM.

On to `Cc1c(-c2cccc3[nH]ncc23)cc(F)c2c1-n1c(C)nnc1C(C)(C)N2` [Example 504, 6-Fluoro-8-(1H-indazol-4-yl)-1,4,4,9-tetramethyl-5H-[1,2,4]triazolo[4,3-a]quinoxaline], for which the IC50 or EC50 (antagonist or agonist mode, not stated per compound) is 100 to 1000 nM.

With `COc1c(-c2cccc3c2ccn3S(=O)(=O)C2CC2)cc(F)c2c1-n1c(C)nnc1C(C)(C)N2` [Example 505, 8-[1-(Cyclopropylsulfonyl)-1H-indol-4-yl]-6-fluoro-9-methoxy-1,4,4-trimethyl-5H-[1,2,4]triazolo[4,3-a]quinoxaline], the IC50 or EC50 (antagonist or agonist mode, not stated per compound) lay in the range of 100 to 1000 nM.

Turning to `Cc1c(-c2cc(Cl)cc3[nH]ccc23)cc(F)c2c1-n1c(C)nnc1C(C)(C)N2` [Example 506, 8-(6-Chloro-1H-indol-4-yl)-6-fluoro-1,4,4,9-tetramethyl-5H-[1,2,4]triazolo[4,3-a]quinoxaline], the IC50 or EC50 (antagonist or agonist mode, not stated per compound) is 100 to 1000 nM.

For `Cc1c(-c2cc(C(F)(F)F)cc3[nH]ncc23)cc(F)c2c1-n1c(C)nnc1C(C)(C)N2` [Example 507, 6-Fluoro-1,4,4,9-tetramethyl-8-[6-(trifluoromethyl)-1H-indazol-4-yl]-5H-[1,2,4]triazolo[4,3-a]quinoxaline], the IC50 or EC50 (antagonist or agonist mode, not stated per compound) lay in the range of 100 to 1000 nM.

With `Cc1c(-c2cc(F)cc3c(C)c[nH]c23)c(F)c(Cl)c2c1-n1c(C)nnc1C(C)(C)N2` [Example 508, 6-Chloro-7-fluoro-8-(5-fluoro-3-methyl-1H-indol-7-yl)-1,4,4,9-tetramethyl-5H-[1,2,4]triazolo[4,3-a]quinoxaline], the IC50 or EC50 (antagonist or agonist mode, not stated per compound) was 100 to 1000 nM.

As to `Cc1c(-c2cccc3c2cnn3S(C)(=O)=O)c(F)c(Cl)c2c1-n1c(C)nnc1C(C)(C)N2` [Example 509, 6-Chloro-7-fluoro-1,4,4,9-tetramethyl-8-(1-methylsulfonyl-1H-indazol-4-yl)-5H-[1,2,4]triazolo[4,3-a]quinoxaline], the IC50 or EC50 (antagonist or agonist mode, not stated per compound) was 100 to 1000 nM.

`Cc1c(-c2cc(F)cc3c2cnn3S(C)(=O)=O)c(F)c(Cl)c2c1-n1c(C)nnc1C(C)(C)N2` [Example 510, 6-Chloro-7-fluoro-8-(6-fluoro-1-methylsulfonyl-1H-indazol-4-yl)-1,4,4,9-tetramethyl-5H-[1,2,4]triazolo[4,3-a]quinoxaline]: the IC50 or EC50 (antagonist or agonist mode, not stated per compound) was under 100 nM.

Turning to `COc1c(-c2cccc3c2ccn3C2CC2)cc(F)c2c1-n1c(C)nnc1C(C)(C)N2` [Example 511, 8-(1-Cyclopropyl-1H-indol-4-yl)-6-fluoro-9-methoxy-1,4,4-trimethyl-5H-[1,2,4]triazolo[4,3-a]quinoxaline], the IC50 or EC50 (antagonist or agonist mode, not stated per compound) was in the range of 100 to 1000 nM.

Turning to `Cc1c(-c2cccc3[nH]ccc23)c(F)c(F)c2c1-n1c(C)nnc1C(C)(C)N2` [Example 512, 6,7-Difluoro-8-(1H-indol-4-yl)-1,4,4,9-tetramethyl-5H-[1,2,4]triazolo[4,3-a]quinoxaline], the IC50 or EC50 (antagonist or agonist mode, not stated per compound) is under 100 nM.

As to `Cc1c(-c2cccc3c(C)c[nH]c23)c(F)c(F)c2c1-n1c(C)nnc1C(C)(C)N2` [Example 513, 6,7-Difluoro-1,4,4,9-tetramethyl-8-(3-methyl-1H-indol-7-yl)-5H-[1,2,4]triazolo[4,3-a]quinoxaline], the IC50 or EC50 (antagonist or agonist mode, not stated per compound) lay within 100 to 1000 nM.

As to `Cc1c(-c2cc(F)cc3c(C)c[nH]c23)c(F)c(F)c2c1-n1c(C)nnc1C(C)(C)N2` [Example 514, 6,7-Difluoro-8-(5-fluoro-3-methyl-1H-indol-7-yl)-1,4,4,9-tetramethyl-5H-[1,2,4]triazolo[4,3-a]quinoxaline], the IC50 or EC50 (antagonist or agonist mode, not stated per compound) was under 100 nM.

As for `COc1c(-c2cc(F)cc3cc[nH]c23)cc(F)c2c1-n1c(C)nnc1C(C)(C)N2` [Example 515, 6-Fluoro-8-(5-fluoro-1H-indol-7-yl)-9-methoxy-1,4,4-trimethyl-5H-[1,2,4]triazolo[4,3-a]quinoxaline], the IC50 or EC50 (antagonist or agonist mode, not stated per compound) was 100 to 1000 nM.

For the compound `Cc1nnc2n1-c1c(c(F)c(F)c(-c3cc(F)cc4[nH]ccc34)c1C(F)(F)F)NC2(C)C` [Example 516, 6,7-Difluoro-8-(6-fluoro-1H-indol-4-yl)-1,4,4-trimethyl-9-(trifluoromethyl)-5H-[1,2,4]triazolo[4,3-a]quinoxaline], the IC50 or EC50 (antagonist or agonist mode, not stated per compound) was under 100 nM.

Regarding `Cc1c(-c2ccc(F)c3[nH]ncc23)cc(F)c2c1-n1c(C)nnc1C(C)(C)N2` [Example 517, 6-Fluoro-8-(7-fluoro-1H-indazol-4-yl)-1,4,4,9-tetramethyl-5H-[1,2,4]triazolo[4,3-a]quinoxaline], the IC50 or EC50 (antagonist or agonist mode, not stated per compound) lay in the range of 100 to 1000 nM.

In the case of `Cc1nnc2n1-c1c(c(F)c(F)c(-c3cc(F)cc4c3ccn4S(C)(=O)=O)c1C(F)(F)F)NC2(C)C` [Example 518, 6,7-difluoro-8-(6-fluoro-1-(methylsulfonyl)-1H-indol-4-yl)-1,4,4-trimethyl-9-(trifluoromethyl)-4,5-dihydro-[1,2,4]triazolo[4,3-a]quinoxaline], the IC50 or EC50 (antagonist or agonist mode, not stated per compound) is 100 to 1000 nM.

As to `Cc1nnc2n1-c1c(c(F)c(F)c(-c3cc(F)cc4c3cnn4S(C)(=O)=O)c1C(F)(F)F)NC2(C)C` [Example 519, 6,7-Difluoro-8-(6-fluoro-1-methylsulfonyl-1H-indazol-4-yl)-1,4,4-trimethyl-9-(trifluoromethyl)-5H-[1,2,4]triazolo[4,3-a]quinoxaline], the IC50 or EC50 (antagonist or agonist mode, not stated per compound) is 100 to 1000 nM.

Turning to `Cc1c(-c2ccc(C#N)c3[nH]ccc23)c(F)c(F)c2c1-n1c(C)nnc1C(C)(C)N2` [Example 520, 4-(6,7-difluoro-1,4,4,9-tetramethyl-4,5-dihydro-[1,2,4]triazolo[4,3-a]quinoxalin-8-yl)-1H-indole-7-carbonitrile], the IC50 or EC50 (antagonist or agonist mode, not stated per compound) was in the range of 100 to 1000 nM.

As to `Cc1c(-c2cc(F)cc3c2ccn3C)c(F)c(F)c2c1-n1c(C)nnc1C(C)(C)N2` [Example 521, 6,7-Difluoro-8-(6-fluoro-1-methyl-1H-indol-4-yl)-1,4,4,9-tetramethyl-5H-[1,2,4]triazolo[4,3-a]quinoxaline], the IC50 or EC50 (antagonist or agonist mode, not stated per compound) was under 100 nM.

Consider `COc1cc(-c2c(C)c3c(c(F)c2F)NC(C)(C)c2nnc(C)n2-3)c2ccn(S(C)(=O)=O)c2c1` [Example 522, 6,7-Difluoro-8-(6-methoxy-1-methylsulfonyl-1H-indol-4-yl)-1,4,4,9-tetramethyl-5H-[1,2,4]triazolo[4,3-a]quinoxaline], for which the IC50 or EC50 (antagonist or agonist mode, not stated per compound) is 100 to 1000 nM.

Take `COc1cc(-c2cc(F)c3c(c2C)-n2c(C)nnc2C(C)(C)N3)c2ccn(S(C)(=O)=O)c2c1` [Example 523, 6-Fluoro-8-(6-methoxy-1-methylsulfonyl-1H-indol-4-yl)-1,4,4,9-tetramethyl-5H-[1,2,4]triazolo[4,3-a]quinoxaline]: the IC50 or EC50 (antagonist or agonist mode, not stated per compound) lay within 100 to 1000 nM.

With `COc1cc(-c2cc(F)c3c(c2OC)-n2c(C)nnc2C(C)(C)N3)c2ccn(S(C)(=O)=O)c2c1` [Example 524, 6-Fluoro-9-methoxy-8-(6-methoxy-1-methylsulfonyl-1H-indol-4-yl)-1,4,4-trimethyl-5H-[1,2,4]triazolo[4,3-a]quinoxaline], the IC50 or EC50 (antagonist or agonist mode, not stated per compound) was 100 to 1000 nM.

With `Cc1c(-c2cc(F)cc3c2cnn3S(C)(=O)=O)c(Cl)c(F)c2c1-n1c(C)nnc1C(C)(C)N2` [Example 525, 7-Chloro-6-fluoro-8-(6-fluoro-1-methylsulfonyl-1H-indazol-4-yl)-1,4,4,9-tetramethyl-5H-[1,2,4]triazolo[4,3-a]quinoxaline], the IC50 or EC50 (antagonist or agonist mode, not stated per compound) was under 100 nM.

Consider `Cc1c(-c2cc(F)cc3c(C)c[nH]c23)c(Cl)c(F)c2c1-n1c(C)nnc1C(C)(C)N2` [Example 526, 7-Chloro-6-fluoro-8-(5-fluoro-3-methyl-1H-indol-7-yl)-1,4,4,9-tetramethyl-5H-[1,2,4]triazolo[4,3-a]quinoxaline], for which the IC50 or EC50 (antagonist or agonist mode, not stated per compound) is under 100 nM.
